Reference: ChEMBL document CHEMBL1201862, “PubChem BioAssay data set” (2004)
The source made the active and inactive calls.

Assays:
[1] = A2780 ovarian cancer cell cytotoxicity, dose response, cytotoxicity control, plate reader, dry powder samples (AID 743046); assay type: functional, cell-based
[2] = NIH:OVCAR-3 ovarian cancer cell cytotoxicity, dose response, PAX8 inhibitor project, plate reader, dry powder samples (AID 743044); assay type: functional, cell-based
Paired box protein Pax-8 = Paired box protein Pax-8 (Homo sapiens, UniProt Q06710); experiment: inhibitors of PAX8-driven TPO luciferase reporter, dose response, RMG-I cells, cherry-pick (AID 687027); assay type: functional, cell-based;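 note: luciferase reporter driven by Pax8 target thyroperoxidase promoter measured by SteadyGlo luminescence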
Paired box protein Pax-8, sequence (Q06710 whole entry): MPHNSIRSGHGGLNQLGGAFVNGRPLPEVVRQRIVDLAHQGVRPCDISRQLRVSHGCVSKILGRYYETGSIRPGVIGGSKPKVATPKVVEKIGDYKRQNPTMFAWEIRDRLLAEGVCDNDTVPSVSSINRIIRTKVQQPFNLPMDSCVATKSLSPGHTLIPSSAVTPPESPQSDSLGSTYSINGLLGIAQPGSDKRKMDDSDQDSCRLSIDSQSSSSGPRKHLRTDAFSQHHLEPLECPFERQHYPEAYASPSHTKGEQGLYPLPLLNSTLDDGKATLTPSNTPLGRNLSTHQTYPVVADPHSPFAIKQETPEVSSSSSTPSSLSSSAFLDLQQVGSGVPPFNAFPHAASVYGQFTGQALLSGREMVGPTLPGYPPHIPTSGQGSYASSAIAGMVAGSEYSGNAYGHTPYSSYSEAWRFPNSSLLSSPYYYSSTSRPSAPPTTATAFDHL

[3] = molecular target: T1, Mannose-6-phosphate isomerase (Homo sapiens, UniProt P34949); experiment: human PMI inhibitors, high substrate, primary screen, biochemical, fluorescence intensity, high mannose 6-phosphate (AID 1220)
T1 sequence (P34949 whole entry): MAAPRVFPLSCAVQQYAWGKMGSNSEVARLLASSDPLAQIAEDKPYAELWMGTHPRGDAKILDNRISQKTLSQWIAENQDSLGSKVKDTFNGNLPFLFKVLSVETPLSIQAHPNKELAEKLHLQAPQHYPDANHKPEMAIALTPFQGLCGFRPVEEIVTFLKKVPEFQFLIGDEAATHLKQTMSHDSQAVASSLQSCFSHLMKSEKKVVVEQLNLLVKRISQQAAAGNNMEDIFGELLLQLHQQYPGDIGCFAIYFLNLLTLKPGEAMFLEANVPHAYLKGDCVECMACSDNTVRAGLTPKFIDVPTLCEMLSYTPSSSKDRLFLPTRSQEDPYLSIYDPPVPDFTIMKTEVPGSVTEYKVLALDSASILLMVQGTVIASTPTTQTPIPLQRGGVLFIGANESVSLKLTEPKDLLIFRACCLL

[4] = molecular target: T2, Carboxy-terminal domain RNA polymerase II polypeptide A small phosphatase 1 (Homo sapiens, UniProt Q9GZU7); experiment: inhibitors of CTDSP1, concentration-response testing, biochemical assay, absorbance-based, actives from ultra-high-throughput screening (AID 540297); assay type: functional
T2 sequence (Q9GZU7 whole entry): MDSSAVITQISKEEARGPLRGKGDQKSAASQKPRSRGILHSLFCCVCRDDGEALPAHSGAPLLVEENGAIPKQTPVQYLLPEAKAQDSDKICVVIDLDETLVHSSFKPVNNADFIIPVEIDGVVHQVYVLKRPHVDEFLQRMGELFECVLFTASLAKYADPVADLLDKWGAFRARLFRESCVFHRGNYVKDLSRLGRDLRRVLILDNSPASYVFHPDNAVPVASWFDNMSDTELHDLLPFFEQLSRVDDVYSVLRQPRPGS

[5] = molecular target: NAD-dependent protein deacylase sirtuin-5, mitochondrial (Homo sapiens, UniProt Q9NXA8); experiment: SIRT5 desuccinylase inhibitors, dose response, biochemical, fluorescence imaging, cherry-pick, set 5 (AID 720591);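 note: desuccinylation of succinyl peptide AMC substrate read as fluorescence after trypsin release; potency of inhibitors that lower fluorescence and may act on trypsin instead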
NAD-dependent protein deacylase sirtuin-5, mitochondrial, sequence (Q9NXA8 whole entry): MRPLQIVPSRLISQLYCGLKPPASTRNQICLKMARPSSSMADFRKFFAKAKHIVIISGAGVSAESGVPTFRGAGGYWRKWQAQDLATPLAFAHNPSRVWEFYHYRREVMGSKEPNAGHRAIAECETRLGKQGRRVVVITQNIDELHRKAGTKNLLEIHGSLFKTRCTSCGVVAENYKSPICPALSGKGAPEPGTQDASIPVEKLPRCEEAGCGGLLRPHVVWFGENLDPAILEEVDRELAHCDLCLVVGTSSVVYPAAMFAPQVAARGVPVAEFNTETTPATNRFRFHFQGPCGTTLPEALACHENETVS

[6] = molecular target: T3, Low molecular weight phosphotyrosine protein phosphatase (Homo sapiens, UniProt P24666); assay type: functional; details: read-out: IC50_Mean;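 note: Dose-response confirmation assay measuring inhibition of LMPTP enzyme activity by fluorescence intensity read-out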
T3 sequence (P24666 whole entry): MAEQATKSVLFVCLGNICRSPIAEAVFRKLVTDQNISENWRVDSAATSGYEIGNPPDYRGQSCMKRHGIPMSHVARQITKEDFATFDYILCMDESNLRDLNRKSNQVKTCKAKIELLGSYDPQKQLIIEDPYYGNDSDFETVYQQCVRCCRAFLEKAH

[7] = Jurkat T cell cytotoxicity, dose response, cytotoxicity control for P. falciparum gametocyte viability project, luminescence (AID 1117277); assay type: functional, cell-based;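 note: potency reflects loss of cellular ATP meaning fewer viable cells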
[8] = P. falciparum late gametocyte killing, dose response, luminescence (AID 1117278); assay type: functional, cell-based;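 note: gametocytes exposed to compound for 24 hours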
[9] = molecular target: T4, Oxysterols receptor LXR-beta (Homo sapiens, UniProt P55055); experiment: LXR agonists, Gal4 luciferase reporter, dose response, counter-screen for ssDAF-12 agonist project, cell-based, luminescence, HEK293, S. stercoralis campaign (AID 720737); assay type: functional; details: read-out: IC50 (the source's name)
T4 sequence (P55055 whole entry): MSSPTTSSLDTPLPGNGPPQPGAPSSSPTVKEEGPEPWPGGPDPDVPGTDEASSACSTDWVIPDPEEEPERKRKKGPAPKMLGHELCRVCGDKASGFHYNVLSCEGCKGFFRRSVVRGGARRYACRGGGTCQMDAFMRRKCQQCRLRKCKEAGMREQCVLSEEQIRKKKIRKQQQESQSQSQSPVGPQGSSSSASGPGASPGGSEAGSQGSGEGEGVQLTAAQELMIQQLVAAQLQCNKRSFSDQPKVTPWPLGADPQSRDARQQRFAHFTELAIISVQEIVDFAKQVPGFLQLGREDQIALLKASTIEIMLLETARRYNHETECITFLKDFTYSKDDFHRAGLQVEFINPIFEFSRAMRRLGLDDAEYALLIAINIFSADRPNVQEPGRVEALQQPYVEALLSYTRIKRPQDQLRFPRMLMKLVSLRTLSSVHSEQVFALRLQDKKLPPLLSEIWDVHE

[10] = Luminescence-based cell-based high throughput dose response assay to identify activators of the DAF-12 from the parasite S. stercoralis (ssDAF-12).; assay type: functional
HeLa = experiment: HeLa cell cytotoxicity, dose response, cytotoxicity control, ATP luminescence, cherry-pick samples (AID 687004); assay type: functional, cell-based; details: Homo sapiens
[11] = molecular target: E3 ubiquitin-protein ligase Mdm2 (Homo sapiens, UniProt Q00987); experiment: enhancers of MDM2-luciferase reporter signal, concentration-effect titration, project on inhibitors of MDM2 ubiquitin ligase, cellular assay, luminescent readout, 384-well plate format (AID 1394); assay type: functional;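 note: MDM2 E3 inhibitors raise luminescence so EC50 is for signal enhancement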
E3 ubiquitin-protein ligase Mdm2, sequence (Q00987 whole entry, the tested form may be a part): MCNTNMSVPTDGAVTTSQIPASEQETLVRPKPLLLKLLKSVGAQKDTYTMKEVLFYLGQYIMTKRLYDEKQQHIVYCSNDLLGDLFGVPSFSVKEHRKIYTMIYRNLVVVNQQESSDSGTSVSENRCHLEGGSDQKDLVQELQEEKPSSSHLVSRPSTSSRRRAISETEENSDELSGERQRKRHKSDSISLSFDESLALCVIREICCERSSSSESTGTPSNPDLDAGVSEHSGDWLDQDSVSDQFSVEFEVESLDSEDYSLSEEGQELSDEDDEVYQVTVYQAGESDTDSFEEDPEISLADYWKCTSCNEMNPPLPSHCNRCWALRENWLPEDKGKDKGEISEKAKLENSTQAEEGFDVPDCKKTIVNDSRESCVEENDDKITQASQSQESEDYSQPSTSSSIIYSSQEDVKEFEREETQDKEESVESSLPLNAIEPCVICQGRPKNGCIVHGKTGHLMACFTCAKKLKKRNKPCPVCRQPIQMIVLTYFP

Fatty acid synthase [12] = molecular target: T5, Fatty acid synthase (Homo sapiens, UniProt P49327); experiment: FAS thioesterase domain inhibitors, dose response, biochemical, endpoint fluorescence intensity, uHTS hits (AID 624327); assay type: functional;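 note: fluorescence from hydrolysis of an O-methyl fluorescein acyl ester substrate by the enzyme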
T5 sequence (P49327 whole entry, the tested form may be a part): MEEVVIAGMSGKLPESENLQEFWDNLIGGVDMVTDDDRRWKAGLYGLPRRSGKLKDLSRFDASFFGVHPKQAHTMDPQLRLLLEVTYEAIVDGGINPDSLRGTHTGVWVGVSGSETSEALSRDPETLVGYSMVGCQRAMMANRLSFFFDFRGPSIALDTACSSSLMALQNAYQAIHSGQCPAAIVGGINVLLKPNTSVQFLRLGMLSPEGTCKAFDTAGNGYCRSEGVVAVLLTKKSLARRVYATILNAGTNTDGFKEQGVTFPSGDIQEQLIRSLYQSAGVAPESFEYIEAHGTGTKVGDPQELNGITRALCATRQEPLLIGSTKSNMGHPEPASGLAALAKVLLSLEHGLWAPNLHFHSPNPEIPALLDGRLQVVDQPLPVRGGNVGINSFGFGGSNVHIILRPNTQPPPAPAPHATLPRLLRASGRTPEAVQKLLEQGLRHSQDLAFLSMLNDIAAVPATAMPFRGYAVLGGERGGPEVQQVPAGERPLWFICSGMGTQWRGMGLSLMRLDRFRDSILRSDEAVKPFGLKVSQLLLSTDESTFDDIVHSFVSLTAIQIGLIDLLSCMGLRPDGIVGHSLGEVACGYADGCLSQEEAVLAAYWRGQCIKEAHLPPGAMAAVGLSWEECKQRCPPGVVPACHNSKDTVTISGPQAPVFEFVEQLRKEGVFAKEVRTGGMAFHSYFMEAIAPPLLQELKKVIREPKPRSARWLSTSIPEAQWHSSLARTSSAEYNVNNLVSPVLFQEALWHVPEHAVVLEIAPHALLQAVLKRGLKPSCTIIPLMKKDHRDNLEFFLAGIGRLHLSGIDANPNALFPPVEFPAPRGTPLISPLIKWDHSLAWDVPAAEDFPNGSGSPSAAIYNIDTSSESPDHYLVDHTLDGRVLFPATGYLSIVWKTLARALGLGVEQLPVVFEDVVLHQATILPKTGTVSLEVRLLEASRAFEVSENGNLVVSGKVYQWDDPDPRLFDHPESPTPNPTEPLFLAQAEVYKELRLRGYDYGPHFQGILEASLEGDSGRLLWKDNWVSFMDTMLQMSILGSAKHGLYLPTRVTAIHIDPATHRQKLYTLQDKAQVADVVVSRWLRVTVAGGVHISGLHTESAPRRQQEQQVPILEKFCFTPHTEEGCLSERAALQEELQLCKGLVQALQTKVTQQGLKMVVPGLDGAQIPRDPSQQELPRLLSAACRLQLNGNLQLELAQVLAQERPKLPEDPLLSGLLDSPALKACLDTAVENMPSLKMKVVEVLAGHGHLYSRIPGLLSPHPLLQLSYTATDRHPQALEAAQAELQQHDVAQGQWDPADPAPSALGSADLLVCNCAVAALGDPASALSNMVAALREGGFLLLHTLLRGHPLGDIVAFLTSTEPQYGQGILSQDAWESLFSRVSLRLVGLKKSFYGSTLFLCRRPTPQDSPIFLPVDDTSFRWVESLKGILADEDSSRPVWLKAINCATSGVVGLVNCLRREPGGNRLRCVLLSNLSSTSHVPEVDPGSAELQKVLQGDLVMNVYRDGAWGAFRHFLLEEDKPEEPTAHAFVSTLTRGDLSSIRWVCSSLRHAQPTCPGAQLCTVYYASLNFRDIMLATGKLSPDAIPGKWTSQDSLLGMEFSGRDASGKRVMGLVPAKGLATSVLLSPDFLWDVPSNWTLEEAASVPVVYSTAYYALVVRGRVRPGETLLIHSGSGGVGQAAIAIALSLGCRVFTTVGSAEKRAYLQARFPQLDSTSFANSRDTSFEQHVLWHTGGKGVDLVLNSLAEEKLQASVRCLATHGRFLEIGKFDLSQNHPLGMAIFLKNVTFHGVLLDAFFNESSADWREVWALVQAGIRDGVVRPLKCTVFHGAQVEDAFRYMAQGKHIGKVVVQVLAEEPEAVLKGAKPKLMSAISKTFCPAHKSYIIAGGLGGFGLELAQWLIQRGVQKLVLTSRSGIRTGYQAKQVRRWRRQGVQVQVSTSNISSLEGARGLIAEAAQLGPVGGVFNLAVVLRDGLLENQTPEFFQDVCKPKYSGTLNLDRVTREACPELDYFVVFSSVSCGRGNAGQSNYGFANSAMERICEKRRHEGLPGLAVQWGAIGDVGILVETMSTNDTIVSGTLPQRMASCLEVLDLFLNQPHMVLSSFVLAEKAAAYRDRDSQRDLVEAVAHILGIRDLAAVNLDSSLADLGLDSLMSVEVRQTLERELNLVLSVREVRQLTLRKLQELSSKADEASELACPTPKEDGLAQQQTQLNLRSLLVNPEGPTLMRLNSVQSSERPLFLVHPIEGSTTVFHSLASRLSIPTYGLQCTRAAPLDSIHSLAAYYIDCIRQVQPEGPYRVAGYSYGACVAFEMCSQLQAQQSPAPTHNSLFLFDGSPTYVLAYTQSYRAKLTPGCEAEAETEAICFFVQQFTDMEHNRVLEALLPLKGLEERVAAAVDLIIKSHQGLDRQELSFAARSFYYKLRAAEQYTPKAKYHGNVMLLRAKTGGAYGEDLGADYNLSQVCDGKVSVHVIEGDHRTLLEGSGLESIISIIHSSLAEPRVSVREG

Fatty acid synthase [13] = molecular target: T5, Fatty acid synthase; experiment: FAS thioesterase domain inhibitors, dose response, biochemical, kinetic fluorescence intensity (AID 624326); assay type: functional;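 note: rate of fluorescence rise from hydrolysis of a fluorogenic O-methyl fluorescein ester substrate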
[14] = molecular target: Disintegrin and metalloproteinase domain-containing protein 17 (Homo sapiens, UniProt P78536); experiment: ADAM17 protease inhibitors, dose response, counter-screen for ADAM10 exosite inhibitor project, biochemical, quenched FRET substrate (AID 743253)
[15] = ADAM10 inhibitors, peptide cleavage, dose response, biochemical, QFRET (AID 743254);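 note: ADAM10 enzyme with the DM2 quenched FRET peptide as substrate; EDANS fluorescence gain as the protease cuts the substrate; inhibitor potency against ADAM10 proteolytic activity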
[16] = molecular target: Endoplasmic reticulum aminopeptidase 1 (Homo sapiens, UniProt Q9NZ08); experiment: ERAP1 aminopeptidase inhibitors, dose response, biochemical, cherry-pick, set 2, plate reader (AID 743314)
Endoplasmic reticulum aminopeptidase 1, sequence (Q9NZ08 whole entry): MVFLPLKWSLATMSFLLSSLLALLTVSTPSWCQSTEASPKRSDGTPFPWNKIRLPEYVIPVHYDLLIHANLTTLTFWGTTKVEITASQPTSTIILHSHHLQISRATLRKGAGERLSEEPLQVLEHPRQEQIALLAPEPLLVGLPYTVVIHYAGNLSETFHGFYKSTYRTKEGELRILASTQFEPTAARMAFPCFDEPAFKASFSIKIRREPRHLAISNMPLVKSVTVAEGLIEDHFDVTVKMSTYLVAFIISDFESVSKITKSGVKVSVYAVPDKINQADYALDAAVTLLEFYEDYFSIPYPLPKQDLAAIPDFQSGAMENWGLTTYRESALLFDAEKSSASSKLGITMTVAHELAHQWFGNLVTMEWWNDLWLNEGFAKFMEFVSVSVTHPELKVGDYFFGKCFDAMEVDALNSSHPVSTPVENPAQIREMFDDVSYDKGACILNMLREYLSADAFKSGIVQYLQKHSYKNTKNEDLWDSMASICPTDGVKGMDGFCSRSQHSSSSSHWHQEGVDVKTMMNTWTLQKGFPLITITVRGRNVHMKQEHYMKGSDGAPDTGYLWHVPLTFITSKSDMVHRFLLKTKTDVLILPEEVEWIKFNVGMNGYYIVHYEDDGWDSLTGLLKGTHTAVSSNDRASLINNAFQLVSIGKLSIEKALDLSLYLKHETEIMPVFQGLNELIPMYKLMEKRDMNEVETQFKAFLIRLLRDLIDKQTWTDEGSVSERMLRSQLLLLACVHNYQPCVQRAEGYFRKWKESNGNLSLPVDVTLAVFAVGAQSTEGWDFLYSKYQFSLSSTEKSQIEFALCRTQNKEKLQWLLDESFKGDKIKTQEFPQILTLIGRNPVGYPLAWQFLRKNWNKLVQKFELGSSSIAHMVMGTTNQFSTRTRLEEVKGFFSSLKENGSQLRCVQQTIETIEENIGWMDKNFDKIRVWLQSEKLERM

[17] = inhibitors of Vif binding to APOBEC3G peptide, primary screen, biochemical, TR-FRET, GST-Vif 1-94, biotin-A3G peptide, dose response retest (AID 1117319); assay type: functional;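 note: TR-FRET signal of purified GST-Vif binding a biotinylated A3G peptide; inhibitors lower the FRET signal by blocking Vif and A3G binding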
[18] = molecular target: Diphosphomevalonate decarboxylase (Streptococcus pneumoniae serotype 2 (strain D39 / NCTC 7466), UniProt Q9FD53); experiment: S. pneumoniae DPM-DC inhibition retest, confirmation, biochemical, cuvette format, coupled NADH fluorescence (AID 1028); assay type: functional
Diphosphomevalonate decarboxylase, sequence (Q9FD53 whole entry): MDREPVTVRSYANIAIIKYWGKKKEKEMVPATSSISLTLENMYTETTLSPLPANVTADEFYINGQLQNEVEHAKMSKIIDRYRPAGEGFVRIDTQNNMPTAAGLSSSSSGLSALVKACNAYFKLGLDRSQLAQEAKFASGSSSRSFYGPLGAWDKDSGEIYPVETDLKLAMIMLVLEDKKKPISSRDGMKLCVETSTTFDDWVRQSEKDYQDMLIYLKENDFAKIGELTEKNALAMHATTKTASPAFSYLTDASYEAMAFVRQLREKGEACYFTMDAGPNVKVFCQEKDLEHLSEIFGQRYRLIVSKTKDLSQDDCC

With `Cc1ccc(S(=O)(=O)Nc2ccc3c(c2)C(=O)N([C@H](C)CO)C[C@@H](C)[C@@H](CN(C)Cc2ccc4c(c2)OCO4)OCCCC[C@@H](C)O3)cc1` the AC50 [1] was < 0.26 µM (active), the AC50 [2] was 29.1 µM (active) and the AC50 (Paired box protein Pax-8) was 21 µM (active).
With `On1c2c(c3c4nonc4ccc31)CCCC2` the IC50 [3] was > 50 µM (not active).
In the case of `CCSc1nnc(NC(=O)CSc2sc3c(O)cc(=O)[nH]c3c2C#N)s1`, the IC50 [4] is reported as 3.21 µM (active), the AC50 [5] is reported as > 30 µM (inactive) and the IC50 [6] is reported as 49.5 µM (inactive).
For `CCN(c1ccc(C)c(C)c1)S(=O)(=O)c1ccc2c(c1)CCN2C(=O)CCC(=O)O`, the IC50 [7] was > 83.3 µM (inactive) and the IC50 [8] was > 109 µM (inactive).
For `Cc1ccc(-c2cn3cccc(C)c3n2)cc1`, the EC50 [9] was > 67.5 µM (inactive) and the IC50 [10] was > 67.5 µM (inactive).
With `CCCn1c(SCC(=O)c2cc(OC)ccc2OC)nnc1-c1ccco1` the IC50 [7] was > 83.3 µM (inactive) and the IC50 [8] was > 109 µM (inactive).
In the case of `CN1C(=O)c2cc(NC(=O)Nc3ccc(Cl)cc3)ccc2OC[C@H]2O[C@@H](CC(=O)NCCN3CCCCC3)CC[C@@H]21`, the AC50 (HeLa) is reported as 22.7 µM (active).
For `C[C@H]1CN([C@@H](C)CO)C(=O)c2cc(NC(=O)Nc3ccc(F)cc3)ccc2O[C@@H]1CN(C)S(C)(=O)=O`, the AC50 (HeLa) was 1.16 µM (active).
With `COc1ccccc1-c1cc(SC)c(C#N)c(=O)o1` the EC50 [11] was 11.1 µM (active), the IC50 (Fatty acid synthase [12]) was 15.3 µM (active) and the IC50 (Fatty acid synthase [13]) was 10.9 µM (active).
In the case of `Cc1ccc(C(=O)Nc2ccccc2C(=O)NCc2ccco2)cc1S(=O)(=O)N1CCCCC1`, the IC50 [14] is reported as > 69.5 µM (inactive) and the IC50 [15] is reported as > 69.5 µM (inactive).
For `O=C(NCC1CC1)[C@H]1[C@H](CO)[C@H]2Cn3c(ccc(/C=C/c4ccccc4)c3=O)[C@@H]1N2C(=O)C1CC1`, the AC50 [16] was 7.13 µM (active).
For `CC(=O)Cc1nsc(Nc2ccc3c(c2)OCCO3)n1`, the IC50 [17] was > 100 µM (active).
For `Cc1cc(OC(=O)c2ccccc2)c([N+](=O)[O-])c(O)n1`, the EC50 [11] was 0.01 µM (not active).
For `CN1CCN(C(=O)c2ccc(-n3sc4ccccc4c3=O)cc2)CC1`, the IC50 [18] was 25.8 µM (active).
